# Patent EP2532242A1, “Use of bispyridiniumalkanes for killing spores” (L'AIR LIQUIDE, SOCIETE ANONYME POUR L'ETUDE ET …, priority 2011, dated 2012)
# Experiments:
# [1] = tested on: Bacillus subtilis ATCC 6633; test: Concentration test spores of Bacillus subtilis (method B), with and without lysozyme; format: cell-based; conditions: use concentration of 0.001% (Figure 2)
# Experimental: • fixed pipettes 1 ml; 500 µl, and 100 µl • sterile glass pipettes 10 ml • sterile spatulas • sterile Schott bottles • water bath 30°C • CSA-agar + TLSH (Tween 80 3%; lecithin 0.3%; saponin 3%, histidine 0.1%) • Bacillus subtilis ATCC 6633 stored in a) H2O or b) ethanol
# Spore samples are provided commercially, sometimes as ethanolic solution (40% ethanol in water).
# Germination medium: + TLSH:
# The germ count of the ordered spore solution is ascertained prior to the start of the experiment by means of plating out and counting and, if appropriate, the spore suspension is diluted. On the day of the experiment, a starting germ count (SGC) is again generated from the spore suspension used. By means of spore counting under the microscope in a Helber chamber, a comparison is drawn between spores which are actually present and the number of germinating spores. The starting spore count should be ca. 1 × 10^7 CFU/ml. With the help of the malachite green coloration, adequate sporulation of the spore suspension used was verified by means of light microscopy.
# Samples are taken regularly over several weeks. The experimental solutions stand in the dark at room temperature during the action times.
# In each case 50 ml per solution to be investigated are pipetted into a sterile Schott bottle, inoculated with 50 µl of spore suspension and incubated at room temperature. […]
# spores = conditions: prior art; cited from earlier work
Compound,effect against B. subtilis ATCC 6633 [1],time after which the effect can be detected [1],germination of spores (spores),killing of spores (spores)
"CCCCCCCCN=c1ccn(CCCCCCCCCCn2ccc(=NCCCCCCCC)cc2)cc1.Cl.Cl [octenidine, N,N'-(1,10-decanediyldi-1[4H]-pyridinyl-4-ylidene)bis(1-octanamine) dihydrochloride]",effective,after just one day,,
CCCCCCCCCC[N+](C)(C)CCCCCCCCCC.[Cl-] [didecyldimethylammonium chloride],,,prevent the germination of spores,do not kill them
benzalkonium chloride,,,prevent the germination of spores,spores are not killed
